pIC50: −log10 of the molar value.
What follows are compounds tested against human D-amino acid oxidase (hDAAO) (Homo sapiens (Human), UniProt P14920) (assay: In vitro human D-amino acid oxidase (hDAAO) activity, D-Serine/Amplex Red fluorescence). Settings: D-Serine substrate, 20 min.
Assay type: biochemical
Description: The hDAAO inhibitory activities were measured by using D-Serine as a substrate to produce H2O2. The produced H2O2 would be oxidized by peroxidase, and the produced free radicals would further react with Amplex Red reagent to emit fluorescence. The intensity of fluorescence at 590 nm would be measured to represent the activity of hDAAO. All compounds were dissolved in DMSO. Each compound was diluted with DMSO in 3-fold serial dilution to create a dose response curve. Each sample was added in triplicate, 1 µL/well, into 96-well black plates. Positive control wells were added with 1 μL of DMSO. Then 49 μL of assay buffer (100 mM Tris-HCl, pH 8.5) containing 1.2 ng/mL hDAAO, 900 nM FAD, 0.2 units/mL HRP, and 100 μM Amplex Red was added to each well of the plate using a multichannel pipette. Next, 50 μL of 100 mM D-Serine in assay buffer was added. The reaction plates were then incubated in the dark at room temperature. The fluorescence readout was detected at 0 and 20 mins by Molecular Device Gemini EM fluorescence reader using the following settings: excitation filter 530 nm, and emission filter 590 nm. The percentage of inhibition values for each well was calculated with the following equation: The percentage of inhibition=(fluorescence sample, 20 min−fluorescence sample, 0 min)/(fluorescence DMSO, 20 min−fluorescence DMSO, 0 min)×100%
The nonlinear curve fitting model in GraphPad Prism was used to calculate IC50 value for each compound.

Sequence of human D-amino acid oxidase (hDAAO) (P14920 whole entry): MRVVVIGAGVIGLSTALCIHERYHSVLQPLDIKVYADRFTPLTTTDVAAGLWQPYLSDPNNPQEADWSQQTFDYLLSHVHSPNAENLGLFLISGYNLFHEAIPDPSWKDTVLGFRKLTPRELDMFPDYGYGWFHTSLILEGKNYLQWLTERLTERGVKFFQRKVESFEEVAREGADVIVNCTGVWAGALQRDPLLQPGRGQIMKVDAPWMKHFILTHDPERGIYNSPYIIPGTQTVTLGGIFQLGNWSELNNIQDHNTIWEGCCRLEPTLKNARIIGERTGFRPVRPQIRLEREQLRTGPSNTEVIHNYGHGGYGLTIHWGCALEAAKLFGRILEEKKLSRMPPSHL

O=C(Oc1cc(C(=O)Oc2cc(C(=O)Oc3cc(C(=O)Oc4cc(C(=O)O[C@H]5OC[C@@H](OC(=O)c6cc(O)c(O)c(OC(=O)c7cc(O)c(O)c(OC(=O)c8cc(O)c(O)c(OC(=O)c9cc(O)c(O)c(OC(=O)c%10cc(O)c(O)c(O)c%10)c9)c8)c7)c6)[C@H](OC(=O)c6cc(O)c(O)c(OC(=O)c7cc(O)c(O)c(OC(=O)c8cc(O)c(O)c(OC(=O)c9cc(O)c(O)c(OC(=O)c%10cc(O)c(O)c(O)c%10)c9)c8)c7)c6)[C@H]5OC(=O)c5cc(O)c(O)c(OC(=O)c6cc(O)c(O)c(OC(=O)c7cc(O)c(O)c(OC(=O)c8cc(O)c(O)c(OC(=O)c9cc(O)c(O)c(O)c9)c8)c7)c6)c5)cc(O)c4O)cc(O)c3O)cc(O)c2O)cc(O)c1O)c1cc(O)c(O)c(O)c1 [Compound 123, (2R,3R,4S,5R)-tetrahydro-2H-pyran-2,3,4,5-tetrayl tetrakis(3-((3-((3-((3,4-dihydroxy-5-((3,4,5-trihydroxybenzoyl)oxy)benzoyl)oxy)-4,5-dihydroxybenzoyl)oxy)-4,5-dihydroxybenzoyl)oxy)-4,5-dihydroxybenzoate)] and O=C(OC[C@H]1O[C@H](OC(=O)c2cc(O)c(O)c(OC(=O)c3cc(O)c(O)c(OC(=O)c4cc(O)c(O)c(OC(=O)c5cc(O)c(O)c(OC(=O)c6cc(O)c(O)c(O)c6)c5)c4)c3)c2)[C@H](OC(=O)c2cc(O)c(O)c(OC(=O)c3cc(O)c(O)c(OC(=O)c4cc(O)c(O)c(OC(=O)c5cc(O)c(O)c(OC(=O)c6cc(O)c(O)c(O)c6)c5)c4)c3)c2)[C@@H]1OC(=O)c1cc(O)c(O)c(OC(=O)c2cc(O)c(O)c(OC(=O)c3cc(O)c(O)c(OC(=O)c4cc(O)c(O)c(OC(=O)c5cc(O)c(O)c(O)c5)c4)c3)c2)c1)c1cc(O)c(O)c(OC(=O)c2cc(O)c(O)c(OC(=O)c3cc(O)c(O)c(OC(=O)c4cc(O)c(O)c(OC(=O)c5cc(O)c(O)c(O)c5)c4)c3)c2)c1 [Compound 140, (2R,3R,4R,5R)-5-(((3-((3-((3-((3,4-dihydroxy-5-((3,4,5-trihydroxybenzoyl)oxy)benzoyl)oxy)-4,5-dihydroxybenzoyl)oxy)-4,5-dihydroxybenzoyl)oxy)-4,5-dihydroxybenzoyl)oxy)methyl)tetrahydrofuran-2,3,4-triyl tris(3-((3-((3-((3,4-dihydroxy-5-((3,4,5-trihydroxybenzoyl)oxy)benzoyl)oxy)-4,5-dihydroxybenzoyl)oxy)-4,5-dihydroxybenzoyl)oxy)-4,5-dihydroxybenzoate)] are within 0.2 log units of each other in pIC50: 8.62 for the first, 8.52 for the second.

Compared with O=C(Oc1cc(C(=O)Oc2cc(C(=O)O[C@@H]3OC[C@@H](OC(=O)c4cc(O)c(O)c(OC(=O)c5cc(O)c(O)c(OC(=O)c6cc(O)c(O)c(O)c6)c5)c4)[C@H](OC(=O)c4cc(O)c(O)c(OC(=O)c5cc(O)c(O)c(OC(=O)c6cc(O)c(O)c(O)c6)c5)c4)[C@H]3OC(=O)c3cc(O)c(O)c(OC(=O)c4cc(O)c(O)c(OC(=O)c5cc(O)c(O)c(O)c5)c4)c3)cc(O)c2O)cc(O)c1O)c1cc(O)c(O)c(O)c1 [Compound 126, (2S,3R,4S,5R)-tetrahydro-2H-pyran-2,3,4,5-tetrayl tetrakis(3-((3,4-dihydroxy-5-((3,4,5-trihydroxybenzoyl)oxy)benzoyl)oxy)-4,5-dihydroxybenzoate)], O=C(OC[C@H]1O[C@H](OC(=O)c2cc(O)c(O)c(OC(=O)c3cc(O)c(O)c(OC(=O)c4cc(O)c(O)c(O)c4)c3)c2)[C@H](OC(=O)c2cc(O)c(O)c(OC(=O)c3cc(O)c(O)c(OC(=O)c4cc(O)c(O)c(O)c4)c3)c2)[C@@H]1OC(=O)c1cc(O)c(O)c(OC(=O)c2cc(O)c(O)c(OC(=O)c3cc(O)c(O)c(O)c3)c2)c1)c1cc(O)c(O)c(OC(=O)c2cc(O)c(O)c(OC(=O)c3cc(O)c(O)c(O)c3)c2)c1 [Compound 136, (2R,3R,4R,5R)-5-(((3-((3,4-dihydroxy-5-((3,4,5-trihydroxybenzoyl)oxy)benzoyl)oxy)-4,5-dihydroxybenzoyl)oxy)methyl)tetrahydrofuran-2,3,4-triyl tris(3-((3,4-dihydroxy-5-((3,4,5-trihydroxybenzoyl)oxy)benzoyl)oxy)-4,5-dihydroxybenzoate)] is 0.22 log units lower in pIC50: 8.44 for the first, 8.22 for the second. The first is the more potent here.

O=C(Oc1cc(C(=O)Oc2cc(C(=O)Oc3cc(C(=O)O[C@@H]4OC[C@@H](OC(=O)c5cc(O)c(O)c(OC(=O)c6cc(O)c(O)c(OC(=O)c7cc(O)c(O)c(OC(=O)c8cc(O)c(O)c(O)c8)c7)c6)c5)[C@H](OC(=O)c5cc(O)c(O)c(OC(=O)c6cc(O)c(O)c(OC(=O)c7cc(O)c(O)c(OC(=O)c8cc(O)c(O)c(O)c8)c7)c6)c5)[C@H]4OC(=O)c4cc(O)c(O)c(OC(=O)c5cc(O)c(O)c(OC(=O)c6cc(O)c(O)c(OC(=O)c7cc(O)c(O)c(O)c7)c6)c5)c4)cc(O)c3O)cc(O)c2O)cc(O)c1O)c1cc(O)c(O)c(O)c1 [Compound 128, (2S,3R,4S,5R)-tetrahydro-2H-pyran-2,3,4,5-tetrayl tetrakis(3-((3-((3,4-dihydroxy-5-((3,4,5-trihydroxybenzoyl)oxy)benzoyl)oxy)-4,5-dihydroxybenzoyl)oxy)-4,5-dihydroxybenzoate)] and O=C(OC[C@H]1O[C@@H](OC(=O)c2cc(O)c(O)c(OC(=O)c3cc(O)c(O)c(OC(=O)c4cc(O)c(O)c(OC(=O)c5cc(O)c(O)c(O)c5)c4)c3)c2)[C@H](OC(=O)c2cc(O)c(O)c(OC(=O)c3cc(O)c(O)c(OC(=O)c4cc(O)c(O)c(OC(=O)c5cc(O)c(O)c(O)c5)c4)c3)c2)[C@@H]1OC(=O)c1cc(O)c(O)c(OC(=O)c2cc(O)c(O)c(OC(=O)c3cc(O)c(O)c(OC(=O)c4cc(O)c(O)c(O)c4)c3)c2)c1)c1cc(O)c(O)c(OC(=O)c2cc(O)c(O)c(OC(=O)c3cc(O)c(O)c(OC(=O)c4cc(O)c(O)c(O)c4)c3)c2)c1 [Compound 146, (2S,3R,4R,5R)-5-(((3-((3-((3,4-dihydroxy-5-((3,4,5-trihydroxybenzoyl)oxy)benzoyl)oxy)-4,5-dihydroxybenzoyl)oxy)-4,5-dihydroxybenzoyl)oxy)methyl)tetrahydrofuran-2,3,4-triyl tris(3-((3-((3,4-dihydroxy-5-((3,4,5-trihydroxybenzoyl)oxy)benzoyl)oxy)-4,5-dihydroxybenzoyl)oxy)-4,5-dihydroxybenzoate)] are within 0.2 log units of each other in pIC50: 8.48 for the first, 8.40 for the second.

Compared with O=C(OC[C@H]1O[C@H](OC(=O)c2cc(O)c(O)c(OC(=O)c3cc(O)c(O)c(O)c3)c2)[C@H](OC(=O)c2cc(O)c(O)c(OC(=O)c3cc(O)c(O)c(O)c3)c2)[C@@H]1OC(=O)c1cc(O)c(O)c(OC(=O)c2cc(O)c(O)c(O)c2)c1)c1cc(O)c(O)c(OC(=O)c2cc(O)c(O)c(O)c2)c1 [Compound 134, (2R,3R,4R,5R)-5-(((3,4-dihydroxy-5-((3,4,5-trihydroxybenzoyl)oxy)benzoyl)oxy)methyl)tetrahydrofuran-2,3,4-triyl tris(3,4-dihydroxy-5-((3,4,5-trihydroxybenzoyl)oxy)benzoate)], O=C(OC[C@H]1O[C@@H](OC(=O)c2cc(O)c(O)c(OC(=O)c3cc(O)c(O)c(O)c3)c2)[C@H](OC(=O)c2cc(O)c(O)c(OC(=O)c3cc(O)c(O)c(O)c3)c2)[C@@H]1OC(=O)c1cc(O)c(O)c(OC(=O)c2cc(O)c(O)c(O)c2)c1)c1cc(O)c(O)c(OC(=O)c2cc(O)c(O)c(O)c2)c1 [Compound 142, (2S,3R,4R,5R)-5-(((3,4-dihydroxy-5-((3,4,5-trihydroxybenzoyl)oxy)benzoyl)oxy)methyl)tetrahydrofuran-2,3,4-triyl tris(3,4-dihydroxy-5-((3,4,5-trihydroxybenzoyl)oxy)benzoate)] is 0.38 log units lower in pIC50: 8.10 for the first, 7.72 for the second. The first is the more potent here.

Going from O=C(OC[C@H]1O[C@@H](OC(=O)c2cc(O)c(O)c(OC(=O)c3cc(O)c(O)c(OC(=O)c4cc(O)c(O)c(O)c4)c3)c2)[C@H](OC(=O)c2cc(O)c(O)c(OC(=O)c3cc(O)c(O)c(OC(=O)c4cc(O)c(O)c(O)c4)c3)c2)[C@@H]1OC(=O)c1cc(O)c(O)c(OC(=O)c2cc(O)c(O)c(OC(=O)c3cc(O)c(O)c(O)c3)c2)c1)c1cc(O)c(O)c(OC(=O)c2cc(O)c(O)c(OC(=O)c3cc(O)c(O)c(O)c3)c2)c1 [Compound 144, (2S,3R,4R,5R)-5-(((3-((3,4-dihydroxy-5-((3,4,5-trihydroxybenzoyl)oxy)benzoyl)oxy)-4,5-dihydroxybenzoyl)oxy)methyl)tetrahydrofuran-2,3,4-triyl tris(3-((3,4-dihydroxy-5-((3,4,5-trihydroxybenzoyl)oxy)benzoyl)oxy)-4,5-dihydroxybenzoate)] to O=C(OC[C@H]1O[C@@H](OC(=O)c2cc(O)c(O)c(OC(=O)c3cc(O)c(O)c(OC(=O)c4cc(O)c(O)c(OC(=O)c5cc(O)c(O)c(OC(=O)c6cc(O)c(O)c(O)c6)c5)c4)c3)c2)[C@H](OC(=O)c2cc(O)c(O)c(OC(=O)c3cc(O)c(O)c(OC(=O)c4cc(O)c(O)c(OC(=O)c5cc(O)c(O)c(OC(=O)c6cc(O)c(O)c(O)c6)c5)c4)c3)c2)[C@@H]1OC(=O)c1cc(O)c(O)c(OC(=O)c2cc(O)c(O)c(OC(=O)c3cc(O)c(O)c(OC(=O)c4cc(O)c(O)c(OC(=O)c5cc(O)c(O)c(O)c5)c4)c3)c2)c1)c1cc(O)c(O)c(OC(=O)c2cc(O)c(O)c(OC(=O)c3cc(O)c(O)c(OC(=O)c4cc(O)c(O)c(OC(=O)c5cc(O)c(O)c(O)c5)c4)c3)c2)c1 [Compound 148, (2S,3R,4R,5R)-5-(((3-((3-((3-((3,4-dihydroxy-5-((3,4,5-trihydroxybenzoyl)oxy)benzoyl)oxy)-4,5-dihydroxybenzoyl)oxy)-4,5-dihydroxybenzoyl)oxy)-4,5-dihydroxybenzoyl)oxy)methyl)tetrahydrofuran-2,3,4-triyl tris(3-((3-((3-((3,4-dihydroxy-5-((3,4,5-trihydroxybenzoyl)oxy)benzoyl)oxy)-4,5-dihydroxybenzoyl)oxy)-4,5-dihydroxybenzoyl)oxy)-4,5-dihydroxybenzoate)], the pIC50 rises from 8.10 to 8.40 (0.30 log units). The second is the more potent here.

— patent publication US11793823B2, “Compounds and pharmaceutical uses thereof” (SyneuRx International (Taiwan) Corp., priority 2020, dated 2023)
